The source of these data is patent US20240299379A1, “COMPOSITIONS OF CLOFAZIMINE AND AMIKACIN FOR PULMONARY ADMINISTRATION IN THE TREATMENT OF RESPIRATORY DISEASES” (BOARD OF REGENTS, THE UNIVERSITY OF TEXAS SYSTEM, priority 2021, published 2024).

Series [1] in a line: Geometric particle size distribution by laser diffraction (Sympatec HELOS, RODOS dry dispersion). Type of series: physicochemical. The note with it: micronized with Model 00 Jet-O-Mizer Air Jet Mill. The method, then: PSD was calculated using Fraunhofer theory using the Sympatec laser diffractor. […] Measurements were taken every 5 msec […] following powder dispersion. Measurements that were between 5-25% optical density were averaged to determine particle size distribution. Data was analyzed using HELOS software version 5.6.0.0 with an HRLD model to convert the scattering pattern to a particle size distribution.

Series [2] is described as follows: Solubility of the drug substances in solvents. Type of series: physicochemical. The conditions noted are these: ethanol and isopropanol, organic solvent or mixture.
The conditions of series [3]: cited from earlier work.
The conditions of series [4]: in vivo, po; cited from earlier work.
The conditions of series [5]: in vivo, po; cited from earlier work. This is another data set of the same source.

Molecules are shown by their SMILES.

In series [1], `CC(C)N=c1cc2n(-c3ccc(Cl)cc3)c3ccccc3nc-2cc1Nc1ccc(Cl)cc1` [clofazimine, N,5-bis(4-chlorophenyl)-3-(1-methylethylimino)-5H-phenazin-2-amine] had an X50 particle diameter of 2.39 μm and an X90 particle diameter of 5.29 μm. Besides, the solubility in series [2] is at most 800 µg/mL. In addition, in series [3] (Merck Index), the “Solubility in DMF and benzene” value is “soluble”; the “Solubility in acetone and ethyl acetate” value was “sparingly soluble”; the Solubility in chloroform is 15 parts; the Solubility in ethanol is given as 700 parts. For the same molecule, the Solubility in ether in series [3] (Merck Index) is recorded as 1000 parts. In series [3] (Sabnis et al., 2015), the “Solution concentration that can be formed in methanol” value was 0.1%. In series [3], the Solubility in water result was “practically insoluble”. Moreover, in series [4], the “Patient population reporting at least one adverse drug effect” value was 47.5%. The “Duration of administration necessary to reach steady-state concentrations” value in series [5] is listed as “At least 30 days”.

By solubility is commonly meant how much of the substance goes into solution per volume.
